Measured values as given in patent publication US20260306463A1, “SIK INHIBITORS TO TREAT CHRONIC KIDNEY DISEASE” (The General Hospital Corporation, priority 2023, published 2026).

Columns and labels:
[1] = tested on: YAP/TAZ responsive reporter; experiment: YAP/TAZ responsive luciferase reporter assay; assay type: cell-based, mouse (NIH3T3 cells); details: 24 hours; for TGFß-stimulated YAP/TAZ reporter activity: TGFß stimulation
Procedure: FIGS. 14A-14E. SIK pathway controls YAP/TAZ-dependent myofibroblast activation in kidney Gli1 cells. KGlil cells were treated as indicated for 48 hours followed by (A) immunoblotting and (B) RT-qPCR. (C) KGlil cells were treated±TGFß (5 ng/mL) or verteporfin (1 μM) for 48 hours followed by imnunoblotting. (D) Luciferase assay from cells were transfected with a YAP/TAZ responsive reporter. SIK inhibitor and forskolin both block basal and TGFß-stimulated-YAP/TAZ reporter activity. (E) Top, KGlil cells were treated for 24 hours as indicated followed by immunoblotting. Bottom, kidney lysates from adenine diet CKD mice were analyzed by immunoblotting as indicated.
To assess the signal of YAP/TAZ responsive reporter, the mouse fibroblast cell line NIH3T3 cells were transfected 24 hours after plating at 50,000 cells/ml in a 10 cm dish by using 15 μl Polyjet transfection reagent (SignaGen Laboratories, SL100688) and 5 μg of 8xGTIIC-luciferase construct. 48 hours after, the cells were then trypsinized and plated on a black 96-well plate and treated the next day for 24 hours. The luciferase and renilla signals were read using Renilla Luciferase Assay System kit (Promega, E2810) and EnVision plate reader (PerkinElmer).

kidney = details: literature (ref. 21); cited from earlier work
human kidney organoids = experiment: cisplatin injury of human kidney organoids: immunostaining, organoid size; assay type: cell-based; details: intermittent cisplatin, 5 treatments
Procedure: FIG. 7. SK-124 preserves human kidney organoid integrity in cisplatin injury model. Human kidney organoids derived from H9 embryonic stem cells were treated with intermittent cisplatin (5 separate treatments) based on published protocols along with the indicated agent. Organoids were cryo-sectioned and immuno-stained with the indicated markers. The top panels show low power images and the bottom panels focus on regions of proximal tubule cells. The graph measures the mean diameter of organoids in the control (no cisplatin), cisplatin+DMSO, and cisplatin+SK-124 treatment groups.
BJFF human induced pluripotent stem cells (hPSCs) were maintained on Geltrexcoated (Thermo Fisher Scientific) plates using StemFit Basic04 Complete (Ajinomoto Co. Inc.) as previously reported(25). The cells were passaged weekly using Accutase (STEMCELL Technologies) for dissociation and Y27632 (Tocris) for adhesion. Directed differentiation of hPSCs into kidney organoids has been published elsewhere (29). Briefly, hPSCs were differentiated into metanephric mesenchyme cells on day 8 by a three-step directed differentiation protocol. Metanephric mesenchyme was transferred into suspension culture in 96-well ultralow adhesion plates (Coming) and further differentiated into kidney organoids, as previously reported(25). Quality control measures of SIX2 immunostaining on day 8 of differentiation and CDH1, LTL, PODXL, CD146, MEIS1/2/3, and SYTOX-blue staining on day 21 were performed on all batches of kidney organoids to limit batch-to-batch heterogeneity. Kidney organoids were maintained in 200 μl of basal media consisting of Advanced RPMI (Thermo Fisher Scientific) and GlutaMAX (Thermo Fisher Scientific) in 96-well plates, as previously reported. Media changes were conducted three times weekly with removal of 90 [l and addition of 100 μl of fresh basal media.
For cisplatin induced injury, day 49 organoids were treated with 5 μM cisplatin in basal media after full media change. After 24 hours, full media exchanges were performed. This 24-hour treatment was performed twice a week, on day 52-53, day 56-57, day 59-60, and day 63-64 as well, for a total of five cisplatin treatments. Samples were obtained for RT-qPCR and immunostaining immediately following each 24-hour treatment with cisplatin, and from corresponding controls.
Following the treatment, the organoids were collected and immediately fixed in 4% PFA in PBS for 1 hour at room temperature, submerged in 30% sucrose overnight at 4° C., then embedded in O.C.T. Compound (4585. Fisher HealthCare). Subsequently, […] frozen sections were prepared via cryo-sectioning by a cryostat. After 1 hr blocking at room temperature, the sections were treated overnight at 4° C. with primary antibodies in antibody dilution buffer (ADB) with biotinylated LTL (1:200, B-1325, Vector), rat anti-CDH1 (1:500, ab11512, Abcam), goat anti-PODXL (1:500, AF1658, R&D Systems), as well as the antibody of interest, either mouse anti-p21 (1:200, NBP2-43697, Novus Biologicals), or rabbit anti-γH2AX (1:100, 2577, Cell Signaling) antibodies. For the optimum labeling of LTL by biotin/streptavidin interaction, the Streptavidin/Biotin Blocking Kit (SP-2002, Vector Laboratories) was applied according to the manufacturer's instructions. After washing, the samples were stained for 1 hour at RT with the nuclear dye-SYTOX Blue (1:500. S 11348, Invitrogen) and the corresponding secondary antibodies in ADB such as streptavidin-AF750 (1:500, S21384, Invitrogen), donkey anti-rat IgG-AF594 (1:500, A21209, Invitrogen), donkey anti-goat IgG-AF555 (1:500, A21432, Invitrogen), and donkey anti-rabbit IgG-AF488 (1:500, A21206, Invitrogen) for γH2AX or donkey anti-mouse IgG-AF488 (1:500, A21202, Invitrogen) for p21 antibodies as well as mouse anti-Meisl/⅔ (1:200, sc-101850, SantaCruz) conjugated antibody, and slides were mounted with Vectashield antifade mounting medium (H1000, Vector Laboratories). […]

| Molecule | basal YAP/TAZ reporter activity [1] | TGFß-stimulated YAP/TAZ reporter activity [1] | anti-fibrotic effects in kidney (kidney) | patterns of cisplatin-induced injury (human kidney organoids) |
| --- | --- | --- | --- | --- |
| 2-[2,6-Dimethoxy-4-[7-(1-methylpyrazol-4-yl)imidazo[1,2-a]pyridin-3-yl]phenyl]-5-ethyl-1,3,4-oxadiazole [SK-124] | block | block |  |  |
| C=C1/C(=C\C=C2/CCC[C@]3(C)[C@@H]([C@H](C)CCCC(C)(C)O)CC[C@@H]23)C[C@@H](O)C[C@@H]1O [calcitriol, 1,25-dihydroxy-vitamin D, reference compound] |  |  | anti-fibrotic effects in kidney | minimal effects |
| C=C[C@@]1(C)CC(=O)[C@]2(O)[C@@]3(C)[C@@H](O)CCC(C)(C)[C@@H]3[C@H](O)[C@H](OC(C)=O)[C@@]2(C)O1 [forskolin, reference compound] | block | block |  |  |
